Key:
Assay in all cases: relative viability (nuclei count vs DMSO), 5 days (fraction); higher = more cells survive
[1] = compound: CCN1C(=O)C2=CC(=C(N=C2N(C1=O)C3CC3)N)C(=O)N + CC(=O)c1c(C)c2cnc(Nc3ccc(N4CCNCC4)cn3)nc2n(C2CCCC2)c1=O [Palbociclib] (partner 0.5 µM)
In short: (§1)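 Relative viability divides the nuclei count in treated wells by that in vehicle wells. Lung cancer cell lines were seeded in 1536-well plates, dosed by pin tool the next day, and fixed and stained after 5 days in one step with final 0.05% Triton X-100, 1% formaldehyde and 1 ug/ml Hoechst. Dosing was a single drug or a fixed anchor-drug dose plus five library-drug doses (not always all listed) in √10 steps, and values are medians of duplicate plates imaged at 4×.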

[2] = compound: CCN1C(=O)C2=CC(=C(N=C2N(C1=O)C3CC3)N)C(=O)N + Cc1cc(Nc2cc(N3CCN(C)CC3)nc(Sc3ccc(NC(=O)C4CC4)cc3)n2)n[nH]1 [Tozasertib] (partner 0.1 µM)
In short: as §1

[3] = compound: CCN1C(=O)C2=CC(=C(N=C2N(C1=O)C3CC3)N)C(=O)N + NC(=O)Nc1cc(-c2cccc(F)c2)sc1C(=O)N[C@H]1CCCNC1 [AZD7762] (partner 0.2 µM)
In short: as §1

[4] = compound: CCN1C(=O)C2=CC(=C(N=C2N(C1=O)C3CC3)N)C(=O)N + Cc1nc(Nc2ncc(C(=O)Nc3c(C)cccc3Cl)s2)cc(N2CCN(CCO)CC2)n1 [Dasatinib] (partner 0.075 µM)
In short: as §1

[5] = compound: CCN1C(=O)C2=CC(=C(N=C2N(C1=O)C3CC3)N)C(=O)N + CC(=O)Nc1cccc(-n2c(=O)n(C3CC3)c(=O)c3c(Nc4ccc(I)cc4F)n(C)c(=O)c(C)c32)c1 [Trametinib] (partner 0.02 µM)
In short: as §1

Cell Line | relative viability ([1]; first compound 0.253 µM) | relative viability ([1]; first compound 2.53 µM) | relative viability ([1]; first compound 8 µM) | relative viability ([2]; first compound 0.253 µM) | relative viability ([2]; first compound 0.8 µM) | relative viability ([2]; first compound 2.53 µM) | relative viability ([2]; first compound 8 µM) | relative viability ([3]; first compound 0.253 µM) | relative viability ([3]; first compound 2.53 µM) | relative viability ([3]; first compound 8 µM) | relative viability ([4]; first compound 0.253 µM) | relative viability ([4]; first compound 0.8 µM) | relative viability ([4]; first compound 2.53 µM) | relative viability ([4]; first compound 8 µM) | relative viability ([5]; first compound 0.253 µM) | relative viability ([5]; first compound 2.53 µM) | relative viability ([5]; first compound 8 µM) | relative viability ([1]; first compound 0.8 µM) | relative viability ([3]; first compound 0.8 µM) | relative viability ([5]; first compound 0.8 µM)
EMC-BAC-2 | 0.543 | 0.47 | 0.468 | 0.319 | 0.249 | 0.255 | 0.304 | 1.18 | 1.04 | 1.14 | 0.35 | 0.305 | 0.328 | 0.318 | 0.871 | 0.766 | 0.9 |  |  | 
LU99A | 0.461 | 0.419 | 0.409 | 0.307 | 0.277 | 0.252 | 0.238 | 0.356 | 0.304 | 0.348 | 0.541 | 0.548 | 0.528 | 0.511 | 0.504 | 0.56 | 0.549 | 0.448 | 0.377 | 0.545
RERF-LC-KJ | 1.09 | 1.09 | 1.13 | 0.498 | 0.499 | 0.479 | 0.441 | 1.02 | 1.6 | 1 | 0.76 | 0.82 | 0.676 | 0.795 | 0.697 | 0.751 | 0.847 | 1.1 | 0.826 | 0.793
NCI-H647 | 0.434 | 0.328 | 0.355 | 0.33 | 0.304 | 0.273 | 0.277 | 0.537 | 0.547 | 0.581 | 0.182 | 0.176 | 0.172 | 0.16 | 0.521 | 0.418 | 0.389 | 0.356 |  | 0.442
LCLC-97TM1 | 0.272 | 0.294 | 0.181 | 0.218 | 0.166 | 0.204 | 0.25 | 0.242 | 0.267 | 0.175 | 0.793 | 0.948 | 0.855 | 0.883 | 0.194 | 0.203 | 0.182 | 0.244 | 0.155 | 0.217
NCI-H1993 | 0.414 | 0.651 | 0.676 | 0.6 | 0.569 | 0.537 | 0.512 | 0.74 | 0.847 | 0.771 | 0.511 | 0.49 | 0.477 | 0.497 | 0.587 | 0.511 | 0.491 | 0.561 | 0.805 | 0.576
HARA | 0.265 | 0.195 | 0.229 | 0.12 | 0.129 | 0.0936 | 0.111 | 0.661 | 0.296 | 0.315 | 0.321 | 0.234 | 0.233 | 0.246 | 0.513 | 0.56 | 0.545 | 0.32 | 0.304 | 0.914
NCI-H460 | 0.22 | 0.115 | 0.192 | 0.436 | 0.455 | 0.33 | 0.112 | 0.609 | 0.57 | 0.586 | 0.5 | 0.541 | 0.592 | 0.452 | 0.226 | 0.13 | 0.13 | 0.151 | 0.572 | 0.13
EKVX | 0.63 | 0.401 | 0.348 | 0.359 | 0.494 | 0.358 | 0.384 | 0.824 | 0.749 | 0.698 | 0.496 | 0.479 | 0.461 | 0.469 | 0.378 | 0.372 | 0.371 | 0.471 | 0.701 | 0.359
NCI-H1755 | 0.443 | 0.436 | 0.44 | 0.567 | 0.515 | 0.514 | 0.528 | 0.522 | 0.408 | 0.533 | 0.411 | 0.506 | 0.459 | 0.45 | 0.771 | 0.746 | 0.716 | 0.453 | 0.496 | 0.762
NCI-H1395 | 0.707 | 0.603 | 0.578 | 0.697 | 0.693 | 0.722 | 0.65 | 0.42 | 0.428 | 0.397 | 0.395 | 0.392 | 0.405 | 0.405 | 1.13 | 1.04 | 1.07 | 0.694 | 0.388 | 0.94
NCI-H2087 | 0.216 | 0.275 | 0.236 | 0.258 | 0.249 | 0.214 | 0.266 | 1.35 | 1.36 | 1.28 | 0.746 | 0.829 | 0.818 | 0.753 | 0.228 | 0.217 | 0.193 | 0.238 | 1.32 | 0.184
H3255 | 0.321 | 0.327 | 0.279 | 0.606 | 0.682 | 0.533 | 1.3 | 0.884 | 0.919 | 0.832 | 0.403 | 0.444 | 0.425 | 0.347 | 0.587 | 0.567 | 0.636 | 0.335 | 0.922 | 0.578
NCI-H23 | 0.502 | 0.461 | 0.49 | 0.415 | 0.352 | 0.352 | 0.335 | 0.272 | 0.284 | 0.2 | 0.786 | 0.746 | 0.762 | 0.656 | 0.385 | 0.365 | 0.391 | 0.604 | 0.208 | 0.416
HCC-827 | 0.475 | 0.395 | 0.517 | 0.395 | 0.387 | 0.457 | 0.445 | 0.165 | 0.25 | 0.207 | 0.348 | 0.348 | 0.266 | 0.284 | 0.525 | 0.537 | 0.544 | 0.45 | 0.193 | 0.538
HCC-78 | 0.472 | 0.509 | 0.449 | 0.422 |  | 0.289 | 0.453 | 0.56 | 0.626 | 0.735 | 0.368 |  | 0.595 | 0.365 | 0.706 | 0.812 | 0.788 | 0.463 | 0.592 | 0.733
